Experimental data published in patent US11491145B2, “Combination therapies comprising targeted therapeutics” (priority 2017, dated 2022).

Test: Average weight changes in H460 model
Assay type: in vivo
Conditions: SCID mice, tracked 21 days, weight loss also in vehicle group, FIG. 1B
Protocol: In this study, each study group included 8 SCID mice with H460 xenograft. Each group received vehicle (once per week), talazoparib (0.3 mg/kg, one does per day for 4-5 days per week), SDC-TRAP-0063 (100 mg/kg, once per week), or a combination therapy of SDC-TRAP-0063 (100 mg/kg, once per week) and talazoparib (0.3 mg/kg, 5 days per week).
Average weight changes were also tracked for 21 days and the results for the groups treated with talazoparib, SDC-TRAP-0063, and a combination of SDC-TRAP-0063 and talazoparib were shown in FIG. 1B.

- average weight changes (weight loss): Weight loss was observed
SMILES: Cn1ncnc1[C@H]1c2n[nH]c(=O)c3cc(F)cc(c23)N[C@@H]1c1ccc(F)cc1 [talazoparib, Talazoparib]
